Tests used:
[1] = target: T1, Plasmodium falciparum arginase (PFA) (Plasmodium falciparum, UniProt Q8I384); format: biochemical; details: racemic mixtures
T1 sequence (Q8I384 1-411): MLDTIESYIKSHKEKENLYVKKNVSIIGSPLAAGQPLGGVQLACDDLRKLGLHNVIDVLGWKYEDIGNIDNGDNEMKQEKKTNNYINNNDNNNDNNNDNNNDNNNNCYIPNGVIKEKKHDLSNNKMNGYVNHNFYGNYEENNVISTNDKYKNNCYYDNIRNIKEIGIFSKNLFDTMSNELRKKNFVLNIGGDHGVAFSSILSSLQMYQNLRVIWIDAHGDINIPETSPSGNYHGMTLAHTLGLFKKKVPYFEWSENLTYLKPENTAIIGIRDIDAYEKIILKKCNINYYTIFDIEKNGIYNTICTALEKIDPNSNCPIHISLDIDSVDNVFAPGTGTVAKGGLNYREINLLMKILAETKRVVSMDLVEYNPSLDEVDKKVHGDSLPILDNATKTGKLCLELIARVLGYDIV

human arginase I (HAI) = target: T2, human arginase I (HAI) (Homo sapiens, UniProt P05089); test: Surface plasmon resonance binding to immobilized HAI; details: based on Kd, racemic mixtures
T2 sequence (P05089 1-322): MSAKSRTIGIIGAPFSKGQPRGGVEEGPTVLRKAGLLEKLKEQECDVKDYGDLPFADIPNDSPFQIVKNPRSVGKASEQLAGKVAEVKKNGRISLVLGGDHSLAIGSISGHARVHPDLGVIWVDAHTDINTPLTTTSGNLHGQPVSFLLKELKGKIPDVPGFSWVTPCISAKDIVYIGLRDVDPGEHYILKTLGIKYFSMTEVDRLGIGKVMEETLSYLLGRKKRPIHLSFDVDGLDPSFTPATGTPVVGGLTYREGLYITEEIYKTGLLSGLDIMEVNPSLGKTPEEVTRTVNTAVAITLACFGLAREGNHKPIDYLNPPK

Row | SMILES | fold weaker inhibitory potency against PFA than ABH, based on Ki [1] [fold] | fold less tight binding to HAI compared with ABH (human arginase I (HAI)) [fold]
1 | NC(CCCCB(O)O)(C(=O)O)C(F)F (stereo not shown) [FABH, 2-Amino-6-borono-2-(difluoromethyl)hexanoic acid] | 200 | 1889
2 | CC(N)(CCCCB(O)O)C(=O)O (stereo not shown) [MABH, 2-Amino-6-borono-2-methylhexanoic acid] | 26 | 49

From PMC3150614 (Journal of medicinal chemistry, 2011)
